We go through eight compounds from PubChem BioAssay (NCI).

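All cell lines were grown in 96-well plates and treated with compound for 48 hours. TGI: concentration producing complete growth inhibition.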 Bounds are passed on as bounds.

Some test systems named below: SF-295 CNS; SNB-75 CNS; LOX IMVI melanoma; OVCAR-4 ovarian; OVCAR-3 ovarian; SK-OV-3 ovarian; K-562 leukemia; UO-31 renal; NCI-H460 lung; RPMI-8226 leukemia; UACC-62 melanoma; SK-MEL-28 melanoma; NCI-H23 lung; SNB-19 CNS; UACC-257 melanoma; MOLT-4 leukemia; NCI-H522 lung; SF-268 CNS.
Assay in all cases: growth of human tumour cells (NCI), 48 h

For `COc1ccc(C)cc1NC(=S)N/N=C/c1ccco1`, the TGI in the assay with SF-295 CNS, in the assay on SNB-75 CNS, in the assay with LOX IMVI melanoma, in the assay on OVCAR-4 ovarian, in the assay on OVCAR-3 ovarian and in the assay on SK-OV-3 ovarian was above 100 µM in each case. Further, the TGI was above 100 µM in the assay with K-562 leukemia; above 100 µM in the assay with UO-31 renal; above 100 µM with NCI-H460 lung; 71.8 µM in the assay on RPMI-8226 leukemia; above 100 µM in the assay on UACC-62 melanoma; above 100 µM in the assay on SK-MEL-28 melanoma. For the same compound, the TGI was above 100 µM with NCI-H23 lung; above 100 µM in the assay on SNB-19 CNS; above 100 µM in the assay with UACC-257 melanoma; above 100 µM with MOLT-4 leukemia; 69.2 µM in the assay on NCI-H522 lung; above 100 µM with SF-268 CNS.

As to `Cc1c2cnccc2c(C)c2c1c1ccccc1n2CCCCCCCl`, the TGI in the assay with SF-295 CNS was above 50 µM; with SNB-75 CNS it was above 31.6 µM; in the assay on LOX IMVI melanoma, above 50 µM; in the assay on OVCAR-4 ovarian, above 29.3 µM; with OVCAR-3 ovarian, above 50 µM; in the assay on SK-OV-3 ovarian, above 50 µM. The TGI in the assay with K-562 leukemia was above 50 µM; in the assay on UO-31 renal, above 50 µM; with NCI-H460 lung it was above 50 µM; in the assay with RPMI-8226 leukemia, above 48.9 µM; in the assay with UACC-62 melanoma, above 50 µM; in the assay with SK-MEL-28 melanoma, above 50 µM. Further, the TGI in the assay with NCI-H23 lung, in the assay on SNB-19 CNS, with UACC-257 melanoma, in the assay with MOLT-4 leukemia, with NCI-H522 lung and in the assay with SF-268 CNS was above 50 µM each time.

In the case of `Nc1nc2cc(COc3ccc(C(=O)O)cc3)ccc2nc1-c1ccccc1`, the TGI with SF-295 CNS, in the assay with SNB-75 CNS, in the assay on LOX IMVI melanoma, in the assay with OVCAR-4 ovarian, in the assay with OVCAR-3 ovarian and in the assay with SK-OV-3 ovarian was above 10 µM each time. For the same compound, the TGI with K-562 leukemia, in the assay with UO-31 renal, in the assay on NCI-H460 lung, with RPMI-8226 leukemia, in the assay on UACC-62 melanoma and in the assay with SK-MEL-28 melanoma was above 10 µM each time. Further, the TGI with NCI-H23 lung, in the assay on SNB-19 CNS, in the assay on UACC-257 melanoma, with MOLT-4 leukemia, with NCI-H522 lung and in the assay with SF-268 CNS was above 10 µM throughout.

For the compound `O=C(O)C(C1NCCS1)N1C(=O)c2ccccc2C1=O` (centres undefined), the TGI in the assay with SF-295 CNS, in the assay on SNB-75 CNS, in the assay on LOX IMVI melanoma, with OVCAR-4 ovarian, in the assay with OVCAR-3 ovarian and in the assay on SK-OV-3 ovarian was above 100 µM in each case. The TGI in the assay with K-562 leukemia, in the assay on UO-31 renal, in the assay with NCI-H460 lung, in the assay on RPMI-8226 leukemia, in the assay with UACC-62 melanoma and with SK-MEL-28 melanoma was above 100 µM each time. Also, the TGI in the assay with NCI-H23 lung, with SNB-19 CNS, in the assay with UACC-257 melanoma, with MOLT-4 leukemia, with NCI-H522 lung and with SF-268 CNS was above 100 µM each time.

For the compound `NNC(=O)c1cc(Cl)ccc1NC(=O)C12CC3CC(CC(C3)C1)C2`, the TGI with SF-295 CNS, in the assay on SNB-75 CNS, in the assay with LOX IMVI melanoma, with OVCAR-4 ovarian, in the assay on OVCAR-3 ovarian and in the assay on SK-OV-3 ovarian was above 100 µM each time. Moreover, the TGI in the assay with K-562 leukemia is above 100 µM; in the assay with UO-31 renal it was 45.4 µM; in the assay on NCI-H460 lung it was above 100 µM; with RPMI-8226 leukemia, 69.7 µM; in the assay with UACC-62 melanoma, above 100 µM; with SK-MEL-28 melanoma, above 100 µM. For the same compound, the TGI with NCI-H23 lung was above 100 µM; in the assay on SNB-19 CNS it was 43.1 µM; in the assay with UACC-257 melanoma, 96.2 µM; in the assay on MOLT-4 leukemia, above 100 µM; with NCI-H522 lung it was above 100 µM; in the assay with SF-268 CNS, 89.5 µM.

As for `CC(C)(C(=O)N(C(=O)N1CCN(c2ccccc2)CC1)S(=O)(=O)c1ccccc1)c1ccc(Cl)cc1`, the TGI with SF-295 CNS is above 100 µM; in the assay on SNB-75 CNS, above 100 µM; in the assay with LOX IMVI melanoma, above 100 µM; with OVCAR-4 ovarian, above 100 µM; in the assay with OVCAR-3 ovarian it was 99.3 µM; in the assay on SK-OV-3 ovarian, above 100 µM. In addition, the TGI is above 100 µM with K-562 leukemia; 34.3 µM with UO-31 renal; above 100 µM in the assay with NCI-H460 lung; above 100 µM in the assay with RPMI-8226 leukemia; above 100 µM in the assay with UACC-62 melanoma; above 100 µM with SK-MEL-28 melanoma. The TGI in the assay on NCI-H23 lung was above 100 µM; with SNB-19 CNS, above 100 µM; in the assay on UACC-257 melanoma, above 100 µM; with MOLT-4 leukemia, 17.6 µM; with NCI-H522 lung, 26.3 µM; in the assay with SF-268 CNS it was above 100 µM.

Consider `O=C1Sc2sc(=S)sc2SC1c1ccccc1` (centres undefined), for which the TGI with SF-295 CNS was above 100 µM; with SNB-75 CNS, above 81.4 µM; in the assay with LOX IMVI melanoma, above 82.6 µM; in the assay with OVCAR-4 ovarian, above 31.6 µM; in the assay on OVCAR-3 ovarian it was above 31.6 µM; in the assay on SK-OV-3 ovarian, above 100 µM. Further, the TGI in the assay on K-562 leukemia is above 70.7 µM; in the assay on UO-31 renal it was above 86.7 µM; in the assay on NCI-H460 lung it was above 100 µM; with RPMI-8226 leukemia, above 100 µM; in the assay with UACC-62 melanoma, 57.2 µM; with SK-MEL-28 melanoma, above 64.8 µM. Further, the TGI with NCI-H23 lung was above 100 µM; in the assay on SNB-19 CNS, above 100 µM; with UACC-257 melanoma, above 100 µM; in the assay on MOLT-4 leukemia, above 100 µM; with NCI-H522 lung, 19.5 µM; with SF-268 CNS it was above 100 µM.

Consider `C=C1C(=O)OC2/C=C(CO)/C=C\C3OC3(C)CC(OC(=O)/C(C)=C/COC(C)=O)C12` (centres undefined), for which the TGI with SF-295 CNS is 28.3 µM; in the assay with SNB-75 CNS, 20.7 µM; in the assay with LOX IMVI melanoma, 3.05 µM; with OVCAR-4 ovarian it was 16.4 µM; in the assay on OVCAR-3 ovarian, 6.68 µM; in the assay with SK-OV-3 ovarian, 31.7 µM. The TGI in the assay with K-562 leukemia was above 20.7 µM; in the assay on UO-31 renal, 17.9 µM; with NCI-H460 lung, 15.3 µM; with RPMI-8226 leukemia, 4.33 µM; in the assay with UACC-62 melanoma, 4.96 µM; with SK-MEL-28 melanoma, 3.26 µM. In addition, the TGI in the assay with NCI-H23 lung was found to be 8.53 µM; in the assay on SNB-19 CNS it was 25.1 µM; in the assay on UACC-257 melanoma, 6.59 µM; in the assay with MOLT-4 leukemia, 5.49 µM; with NCI-H522 lung, 1.81 µM; in the assay with SF-268 CNS, 15.4 µM.
